Data as given in publication PMC7801115, “Preclinical in vitro screening of newly synthesised amidino substituted benzimidazoles and benzothiazoles” (Journal of Enzyme Inhibition and Medicinal Chemistry, 2021).
Where two headings read alike, the source gives them in different places.

Key:
[1] = Plasma protein binding, equilibrium dialysis; type: in vitro ADME; conditions: for fraction unbound at 4 h, 5 µM: equilibrium dialysis 4 h, 37 °C; for recovery at 4 h, 5 µM: recovery in PPB experiment (value in brackets)
Protocol: The extent of binding to plasma proteins was assessed using equilibrium dialysis method. Plasma (human and mouse) was spiked with test compounds and three controls (nicardipine and verapamil in both species, acebutolol in human and caffeine in mouse plasma) to obtain final concentration of 5 µM (0.5%DMSO). Hydrated membranes were inserted into equilibrium dialysis unit (HT Dialysis) according to manufacturer’s instructions. The dialysate side was then loaded with appropriate volume of buffer, while the same volume of spiked plasma was added into sample side of the well. Incubation lasted 4 h at 37 °C with gentle shaking. Afterwards, protein precipitation was done by mixing matrix matched aliquot of plasma or buffer with 3 volumes of MeCN/MeOH (2:1) mixture, containing internal standard (diclofenac). After centrifugation (at 4500 rpm, at 4 °C, for 30 min) resulting supernatants were subjected to LC-MS/MS.
All ADME samples were analysed on a Sciex API 4000 or Sciex API4500 Triple Quadrupole Mass Spectrometer (Sciex, Framingham, MA, USA) coupled to a UHPLC System (Shimadzu Nexera X2; Shimadzu, Kyoto, Japan). Samples were injected onto an UPLC column (HALO2 C18, 2.1 × 20 mm, 2 µm or Phenomenex Luna Omega Polar C18, 30 × 2.1 mm, 1.6 µm) and eluted with a gradient at temperature of 50 °C. The mobile phase was composed of acetonitrile (with 0.1% formic acid) and 0.1% formic acid in deionised water. A total run time was 1 or 1.5 min, with the flow rate of 0.7 ml/min (under gradient conditions). A positive ion mode with turbo spray, an ion source temperature of 500 °C and a dwell time of 150 ms were utilised for mass spectrometric detection. Multiple reaction monitoring (MRM) was used at the specific transitions for each compound/control tested: compound 5c: 361.9 → 304.9; compound 5d: 344.8 → 287.9; compound 5e: 349.8 → 292.9; compound 5 g: 350.8 → 293.9; compound 5 h: 344.0 → 286.9; compound 6a: 276.9 → 220.0; compound 5 b: 319.0 → 262.0; compound 6 b: 302.1 → 245.1; compound 6c: 344.9 → 288.0; compound 6d: 333.0 → 276.0; compound 6e: 316.1 → 259.0; compound 6f: 327.1 → 270.0; compound 6 g: 377.1 → 320.1; testosterone: 289.3→ 97.1; propranolol: 260.1 → 182.8; caffeine: 195.2 → 138.1; acebutolol: 337.2 → 116.2, nicardipine: 480.2 → 315.0; verapamil: 455.4 → 165.1; amprenavir: 506.2 → 245.4; diclofenac: 296.1 → 213.7 or 296.2 → 215.3; eucatropine: 292.2 → 109.1; benfluorex: 352.1 → 230.3, and warfarin: 309.2 → 163.2

[2] = test system: NCI-H358; assay: BrdU proliferation assay, 2D cell culture; type: cell-based; conditions: Homo sapiens, NCI-H358, 2D cell culture, ±SD, N = 2
Protocol: (§1) Cells were grown in 96 well cell star polystyrene plates. 10,000 cells/well were seeded in wells 4 h prior the treatment with different compounds concentrations and incubated for 72 h. A cell viability assay was performed according to the manufacturer’s instruction, using CellTiter 96 aqueous solution, MTS kit (Promega, Madison, WI, USA). After 0.5–2 h of cell incubation with MTS in 2 D cell culture, the plates were read using PE EnVision absorbance at 490 nm. […] Since we prefer homogeneous assays (mix and read procedures) and therefore MTS is more practical (one step less than MTT). MTS is more sensitive and accurate in comparison with MTT assay.
(§2) Proliferation assay was performed using Cell Proliferation ELISA, BrdU (Sigma, St. Louis, MO, USA). Briefly, 48 h hours after compound addition, 10 µM of BrdU was added to each well and incubated for following 24 h. After incubation, single cell suspension was made for 3 D cell culture in the new 96 well plate. Plates were centrifuged and supernatants were removed from each plate (for 2 D and 3 D cell culture) followed by 60 min incubation at 60° C. The rest of the proliferation assay was performed according to the manufacturer instructions.
(§3) Calculation of IC50 data, curves and QC analysis is made by using Excel tools and GraphPadPrism software (La Jolla, CA), v. […] QC criteria parameters (Z', S:B, R2, HillSlope) were checked for every IC50 curve.

[3] = test system: HCC827; assay: BrdU proliferation assay, 2D cell culture; type: cell-based; conditions: Homo sapiens, HCC827, 2D cell culture, ±SD, N = 2
Protocol: as §1, §2, §3

[4] = Chromatographic lipophilicity study (Chrom logD7.4); type: physicochemical; conditions: gradient reverse-phase HPLC (Phenomenex Luna C18 column); pH 7.4, gradient reverse-phase HPLC, from CHI7.4
Protocol: In order to determine the lipophilicity range, Chromatographic Hydrophobicity Index was measured by gradient reverse-phase HPLC at physiological pH. Sample working solutions were prepared from 10 mM DMSO stock solutions by dilution with acetonitrile to a final concentration of 1.25 mM and analysed on Agilent 1100 Series liquid chromatography system with HPLC diode-array detector (DAD) coupled with Micromass Quattro micro API mass spectrometer. Samples were injected onto an HPLC column (Phenomenex Luna C18, 50 × 3 mm, 5 µm) and eluted with a gradient at room temperature (sample temperature 15 °C). The mobile phase was composed of 50 mM Ammonium acetate, pH = 7.4 and acetonitrille. A total run time was 5 min, with the flow rate of 1 ml/min (under gradient conditions). The HPLC system was initially calibrated using the calibration set of 10 compounds with literature CHI values. The experimentally determined gradient retention times were plotted against the CHI7.4 values published in the literature resulting in the equation obtained from linear regression analysis. This equation was further used for the calculation of CHI7.4 for test compounds from determined retention times of the main chromatographic peak from UV chromatogram for each compound. The obtained CHI7.4 values were further converted to Chrom log D7.4 as follows: CHI7.4 × 0.0857 − 2.

[5] = test system: HCC827; assay: BrdU proliferation assay, 3D cell culture; type: cell-based; conditions: Homo sapiens, HCC827, 3D cell culture, ±SD, N = 2
Protocol: Cells were grown in 96 well Perfecta 3 D hanging drop plates 5000 cell/well for 4 days until spheres were formed (and checked under the microscope). After sphere formation cells were treated with compounds followed by 72 h incubation. Cell viability assay was performed according to the manufacturer’s instruction, using CellTiter GLO 3 D for 3 D cell culture (Promega); cell incubation was 5 min on the shaker followed by 25 min incubation in the dark. Plates were read using PE EnVision luminescence.
as §2, §3

[6] = human plasma, read-out: PPB % bound, Human (converted)
[7] = mouse plasma, read-out: PPB % bound, Mouse (converted)

fraction unbound at 4 h, 5 µM [1, 6] | recovery at 4 h, 5 µM ([1]; human plasma) [%] | fraction unbound at 4 h, 5 µM [1, 7] | recovery at 4 h, 5 µM ([1]; mouse plasma) [%] | IC50 [2] [µM] | IC50 [3] [µM] | chromatographic logD [4] | IC50 [5] [µM] | SMILES
0.334 | 93 | 0.249 | 98 | > 50 | > 50 | 2.18 | > 100 | Cl.N#Cc1ccc(-c2nc3ccc(C4=NCCCN4)cc3s2)cc1 [Compound 5b, 2–(4-Cyanophenyl)-6–(3,4,5,6-tetrahydropyrimidin-1-ium-2-yl)benzothiazole chloride]
0.03 | 89 | 0.025 | 86 | 16 ± 4.14 | 15 ± 2.18 | 3.31 | 21 ± 1.41 | Cl.FC(F)(F)c1ccc(-c2nc3ccc(C4=NCCCN4)cc3s2)cc1 [Compound 5c, 2–(4-Trifluoromethylphenyl)-6–(3,4,5,6-tetrahydropyrimidin-1-ium-2-yl)benzothiazole chloride]
0.053 | 76 | 0.04 | 82 | 9 ± 0.31 | 11 ± 0.17 | 2.87 | 32 ± 11.7 | Cl.c1ccc2nc(-c3nc4ccc(C5=NCCCN5)cc4s3)ccc2c1 [Compound 5d, 2-(Quinoline-2-yl)-6–(3,4,5,6-tetrahydropyrimidin-1-ium-2-yl)benzothiazole chloride]
0.021 | 79 | 0.013 | 82 | 9 ± 0.65 | 10 ± 1.21 | 3.19 | 24 ± 7.63 | Cl.c1ccc2sc(-c3nc4ccc(C5=NCCCN5)cc4s3)cc2c1 [Compound 5e, 2-(Benzo[b]thiophen-2-yl)-6–(3,4,5,6-tetrahydropyrimidin-1-ium-2-yl)benzothiazole chloride]
0.049 | 94 | 0.04 | 85 | 13 ± 0.45 | 18 ± 0.76 | 2.71 | 17 ± 0.93 | Cl.c1ccc2sc(-c3nc4ccc(C5=NCCCN5)cc4s3)nc2c1 [Compound 5g, 2-(Benzothiazole-2-yl)-6–(3,4,5,6-tetrahydropyrimidin-1-ium-2-yl)benzothiazole chloride]
0.024 | 80 | 0.027 | 85 | 7 ± 0.07 | 9 ± 0.83 | 3.31 | 12 ± 0.26 | Cl.c1ccc2cc(-c3nc4ccc(C5=NCCCN5)cc4s3)ccc2c1 [Compound 5h, 2-(Naphthalene-2-yl)-6–(3,4,5,6-tetrahydropyrimidin-1-ium-2-yl)benzothiazole chloride]
0.403 | 75 | 0.371 | 79 | 7 ± 0.3 | 7 ± 0.35 | 0.92 | 12 ± 0.25 | c1ccc(-c2nc3cc(C4=NCCCN4)ccc3[nH]2)cc1 [Compound 6a, 2-Phenyl-5(6)–(3,4,5,6-tetrahydropyrimidin-1-ium-2-yl)benzimidazole chloride]
0.457 | 91 | 0.365 | 87 | > 50 | > 50 | 1.17 | > 100 | N#Cc1ccc(-c2nc3cc(C4=NCCCN4)ccc3[nH]2)cc1 [Compound 6b, 2–(4-Cyanophenyl)-5(6)–(3,4,5,6-tetrahydropyrimidin-1-ium-2-yl)benzimidazole chloride]
0.144 | 97 | 0.13 | 117 | > 50 | > 50 | 2.6 | > 100 | FC(F)(F)c1ccc(-c2nc3cc(C4=NCCCN4)ccc3[nH]2)cc1 [Compound 6c, 2–(4-Trifluoromethylphenyl)-5(6)–(3,4,5,6-tetrahydropyrimidin-1-ium-2-yl)benzimidazole chloride]
0.074 | 86 | 0.061 | 89 | > 50 | > 50 | 2.43 | > 100 | c1ccc2sc(-c3nc4cc(C5=NCCCN5)ccc4[nH]3)cc2c1 [Compound 6d, 2-(Benzo[b]thiophen-2-yl)-5(6)–(3,4,5,6-tetrahydropyrimidin-1-ium-2-yl)benzimidazole chloride]
0.349 | 81 | 0.259 | 91 | > 50 | > 50 | 1.38 | > 100 | c1ccc2c(-c3nc4ccc(C5=NCCCN5)cc4[nH]3)c[nH]c2c1 [Compound 6e, 2-(1H-Indol-3-yl)-5(6)–(3,4,5,6-tetrahydropyrimidin-1-ium-2-yl)benzimidazole chloride]
0.19 | 91 | 0.12 | 102 | > 50 | > 50 | 2.18 | > 100 | c1ccc2cc(-c3nc4cc(C5=NCCCN5)ccc4[nH]3)ccc2c1 [Compound 6f, 2-(Naphthalene-2-yl)-5(6)–(3,4,5,6-tetrahydropyrimidin-1-ium-2-yl)benzimidazole chloride]
